How the values were obtained:
[1] = target: DPP-IV (Homo sapiens, UniProt P27487); assay: Tolerance of GLP-1 and its analogues to DPP-IV (RP-HPLC remaining peak area); format: in vitro ADME; details: peptide 25 μM, DPP-IV 0.5 ng/μL, 37° C.; for Remaining peak area (%)/DPP-IV: 0.0 h; for remaining at 0.5 h, 25 μM / remaining at 2 h, 25 μM / remaining at 4 h, 25 μM / remaining at 8 h, 25 μM / remaining at 12 h, 25 μM: isolated DPP-IV enzyme in buffer, pH 8
Method: (§1) Mix by centrifugation at 8000 rpm for 30 seconds.
(2) Arrange a certain volume of 0.005 μg/μL DPP-IV solution in another sterile EP.

[2] = target: NEP24.11 (Homo sapiens, UniProt P08473); assay: Tolerance of GLP-1 and its analogues to NEP24.11 (RP-HPLC remaining peak area); format: in vitro ADME; details: for Remaining peak area (%)/NEP24.11: 0.0 h; for Remaining peak area (%)/NEP24.11 / remaining at 0.5 h, 30 μM / remaining at 2 h, 30 μM / remaining at 4 h, 30 μM / remaining at 8 h, 30 μM: peptide 30 μM, NEP24.11 1.0 ng/μL, 37° C.; for remaining at 0.5 h, 30 μM / remaining at 2 h, 30 μM / remaining at 4 h, 30 μM / remaining at 8 h, 30 μM: isolated NEP24.11 enzyme in buffer; for remaining at 0.5 h, 30 μM: pH 7.4, 0.5 h; for remaining at 2 h, 30 μM: pH 7.4, 2.0 h; for remaining at 4 h, 30 μM: pH 7.4, 4.0 h; for remaining at 8 h, 30 μM: pH 7.4, 8.0 h, read-out: Remaining peak area (%)/NEP24.11
Chain of NEP24.11 (P08473 whole entry): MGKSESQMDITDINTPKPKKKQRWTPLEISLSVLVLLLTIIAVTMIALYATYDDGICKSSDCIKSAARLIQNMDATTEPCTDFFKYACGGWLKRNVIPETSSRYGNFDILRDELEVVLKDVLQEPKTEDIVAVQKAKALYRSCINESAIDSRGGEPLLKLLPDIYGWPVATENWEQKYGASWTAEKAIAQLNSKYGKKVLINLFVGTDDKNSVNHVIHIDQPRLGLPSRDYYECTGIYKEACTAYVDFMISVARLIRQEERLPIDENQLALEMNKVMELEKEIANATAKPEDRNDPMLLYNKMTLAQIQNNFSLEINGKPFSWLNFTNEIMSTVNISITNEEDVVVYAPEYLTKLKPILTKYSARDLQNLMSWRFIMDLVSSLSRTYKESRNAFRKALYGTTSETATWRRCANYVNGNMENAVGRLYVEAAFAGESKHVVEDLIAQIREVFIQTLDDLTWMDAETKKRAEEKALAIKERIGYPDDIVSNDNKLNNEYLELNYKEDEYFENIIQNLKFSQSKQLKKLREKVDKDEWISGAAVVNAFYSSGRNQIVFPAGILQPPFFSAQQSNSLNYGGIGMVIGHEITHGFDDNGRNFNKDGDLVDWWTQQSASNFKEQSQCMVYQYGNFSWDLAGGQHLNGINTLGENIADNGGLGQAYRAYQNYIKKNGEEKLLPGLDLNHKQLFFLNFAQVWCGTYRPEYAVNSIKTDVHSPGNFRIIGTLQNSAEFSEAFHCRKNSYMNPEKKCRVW
Method: as §1
Arrange a certain volume of 0.04 μg/μL NEP24.11 enzyme solution in another sterile EP.

[3] = target: T1, trypsin (Bos taurus, UniProt P00760); assay: in vitro; details: isolated enzyme trypsin, pH 7.8
T1 sequence (P00760 24-246): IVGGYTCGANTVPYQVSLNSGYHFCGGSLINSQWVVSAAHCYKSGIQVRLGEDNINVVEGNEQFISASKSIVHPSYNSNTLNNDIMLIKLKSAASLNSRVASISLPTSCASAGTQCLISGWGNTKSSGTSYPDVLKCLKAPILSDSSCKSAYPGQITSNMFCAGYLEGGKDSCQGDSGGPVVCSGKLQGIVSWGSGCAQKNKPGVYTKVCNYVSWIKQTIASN
Method: FIG. 17. […] At different time point, 25 μL aliquots was taken out, and 10% (v/v) TFA was added to terminate the reaction.
as §1
(§2) Arrange a certain volume of 0.05 μg/μL trypsin solution in another sterile EP. Incubate the EP tubes containing peptides and enzymes at 37° C. for 5 min, and separately add 6 μL of trypsin solution to each EP tube containing peptides and mix well. Start timing and extract 25 μL of reaction solution at 1.5, 3.0, 4.5, 6.0 and 9.0 min later, respectively. Add 3.75 μL of 10% TFA to terminate the reaction and mix well by centrifugation at 8000 rpm for 30 seconds.
as §2, with “and” for “and separately”, “9” for “6”, “6.0, 9.0, 15.0, 30.0,” for “6.0”, “60.0” for “9.0”
Referring to the experimental method in Example 5, in vitro stability of salmon Calcitonin analogs with oral administration activity to the enzymatic hydrolysis by trypsin, chymotrypsin and elastase were performed.
Referring to the experimental method in Example 5, in vitro stability of IL-17A inhibitory peptides towards the enzymatic hydrolysis by trypsin, chymotrypsin and elastase were performed.

[4] = target: chymotrypsin (Bos taurus, UniProt P00766); assay: in vitro; details: isolated enzyme chymotrypsin, pH 7.8, Remaining peak area (%)/chymotrypsin
In short: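 Peptide and 0.05 μg/μL chymotrypsin were preincubated at 37 °C for 5 min, then mixed. Aliquots taken from 1.5 up to 60.0 min were quenched with 10% TFA, and remaining peptide was measured as RP-HPLC peak area.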

Chain of DPP-IV (P27487 whole entry, species assumed): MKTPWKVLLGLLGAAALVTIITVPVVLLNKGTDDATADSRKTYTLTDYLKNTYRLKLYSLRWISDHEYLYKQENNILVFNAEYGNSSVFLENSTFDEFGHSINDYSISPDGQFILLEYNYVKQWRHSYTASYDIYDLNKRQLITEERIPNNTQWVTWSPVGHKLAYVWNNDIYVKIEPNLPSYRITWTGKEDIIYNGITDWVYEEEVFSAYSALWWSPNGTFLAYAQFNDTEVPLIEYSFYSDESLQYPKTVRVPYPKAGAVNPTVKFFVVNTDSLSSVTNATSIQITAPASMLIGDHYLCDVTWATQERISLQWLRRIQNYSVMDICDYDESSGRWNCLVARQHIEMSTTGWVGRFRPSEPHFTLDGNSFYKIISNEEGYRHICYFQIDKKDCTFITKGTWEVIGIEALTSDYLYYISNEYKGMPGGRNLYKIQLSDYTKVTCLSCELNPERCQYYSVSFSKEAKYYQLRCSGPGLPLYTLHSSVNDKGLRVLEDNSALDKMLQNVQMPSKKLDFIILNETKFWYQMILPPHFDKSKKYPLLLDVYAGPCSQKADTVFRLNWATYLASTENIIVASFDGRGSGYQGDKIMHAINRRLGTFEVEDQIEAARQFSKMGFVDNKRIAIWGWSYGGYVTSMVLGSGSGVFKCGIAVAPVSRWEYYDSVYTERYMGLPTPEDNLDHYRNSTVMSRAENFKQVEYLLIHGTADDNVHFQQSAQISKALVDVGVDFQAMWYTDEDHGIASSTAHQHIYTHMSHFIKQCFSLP

remaining at 0.025 h, 60 μM [3] [%] | remaining at 0.05 h, 60 μM [3] [%] | remaining at 0.075 h, 60 μM [3] [%] | remaining at 0.1 h, 60 μM [3] [%] | remaining at 0.15 h, 60 μM [3] [%] | remaining at 0.025 h, 60 μM [4] [%] | remaining at 0.05 h, 60 μM [4] [%] | remaining at 0.075 h, 60 μM [4] [%] | remaining at 0.1 h, 60 μM [4] [%] | SMILES | Remaining peak area (%)/DPP-IV [1] [%] | remaining at 0.5 h, 25 μM [1] [%] | remaining at 2 h, 25 μM [1] [%] | remaining at 4 h, 25 μM [1] [%] | remaining at 8 h, 25 μM [1] [%] | remaining at 12 h, 25 μM [1] [%] | Remaining peak area (%)/NEP24.11 [2] [%] | remaining at 0.5 h, 30 μM [2] [%] | remaining at 2 h, 30 μM [2] [%] | remaining at 4 h, 30 μM [2] [%] | remaining at 8 h, 30 μM [2] [%] | also measured
21 ± 2.9 | 17.2 ± 0.8 | 9.8 ± 2.9 | 4.5 ± 0.8 | 3.4 ± 1.7 | 72.1 ± 11.5 | 45.8 ± 6.5 | 38 ± 2.3 | 29.3 ± 4.7 | CC[C@H](C)[C@H](NC(=O)[C@H](Cc1ccccc1)NC(=O)[C@H](CCC(=O)O)NC(=O)[C@H](CCCCN)NC(=O)[C@H](C)NC(=O)[C@H](C)NC(=O)[C@H](CCC(N)=O)NC(=O)CNC(=O)[C@H](CCC(=O)O)NC(=O)[C@H](CC(C)C)NC(=O)[C@H](Cc1ccc(O)cc1)NC(=O)[C@H](CO)NC(=O)[C@H](CO)NC(=O)[C@@H](NC(=O)[C@H](CC(=O)O)NC(=O)[C@H](CO)NC(=O)[C@@H](NC(=O)[C@H](Cc1ccccc1)NC(=O)[C@@H](NC(=O)CNC(=O)[C@H](CCC(=O)O)NC(=O)[C@H](C)NC(=O)[C@H](Cc1c[nH]cn1)NC(=O)CNC(=O)CNC(=O)CNC(=O)CNC(=O)CNC(=O)CNC(=O)CN)[C@@H](C)O)[C@@H](C)O)C(C)C)C(=O)N[C@@H](C)C(=O)N[C@@H](Cc1c[nH]c2ccccc12)C(=O)N[C@@H](CC(C)C)C(=O)N[C@H](C(=O)N[C@@H](CCCCN)C(=O)NCC(=O)N[C@@H](CCCNC(=N)N)C(=O)NCC(=O)O)C(C)C [G7-GLP-1] | 100.0 ± 0.0 | 42.1 ± 15.5 | 51.1 ± 6.5 | 55.3 ± 14.4 | 42.3 ± 9.6 | 34.5 ± 2.1 | 100.0 ± 0.0 | 63 ± 5.1 | 27.2 ± 7.2 | 11.5 ± 0.3 | 0 | remaining prototype peptide after DPP-IV treatment ([1]; 12 hours): about 34.5%; degradation by NEP24.11 (in words) ([2]; after 8 hours): almost completely degraded; remaining at 0.15 h, 60 μM [4]: 11.3 ± 3.2%
89.2 ± 3.7 | 83.2 ± 2.3 | 79.1 ± 1 | 84.4 ± 3.4 | 83.9 ± 0.5 | 79.5 ± 4.9 | 71.8 ± 2.7 | 64.9 ± 1 | 59.8 ± 2.9 | CC[C@H](C)[C@H](NC(=O)[C@H](Cc1ccccc1)NC(=O)[C@H](CCC(=O)O)NC(=O)[C@H](CCCCN)NC(=O)[C@H](C)NC(=O)[C@H](C)NC(=O)[C@H](CCC(N)=O)NC(=O)CNC(=O)[C@H](CCC(=O)O)NC(=O)[C@H](CC(C)C)NC(=O)[C@H](Cc1ccc(O)cc1)NC(=O)[C@H](CO)NC(=O)[C@H](CO)NC(=O)[C@@H](NC(=O)[C@H](CC(=O)O)NC(=O)[C@H](CO)NC(=O)[C@@H](NC(=O)[C@H](Cc1ccccc1)NC(=O)[C@@H](NC(=O)CNC(=O)[C@H](CCC(=O)O)NC(=O)[C@H](C)NC(=O)[C@H](Cc1c[nH]cn1)NC(=O)CNC(=O)CNC(=O)[C@H](CCCNC(=N)N)NC(=O)[C@H](CO)NC(=O)[C@H](Cc1ccccc1)NC(=O)[C@H](CCCNC(=N)N)NC(=O)[C@H](CCC(N)=O)NC(=O)CN)[C@@H](C)O)[C@@H](C)O)C(C)C)C(=O)N[C@@H](C)C(=O)N[C@@H](Cc1c[nH]c2ccccc12)C(=O)N[C@@H](CC(C)C)C(=O)N[C@H](C(=O)N[C@@H](CCCCN)C(=O)NCC(=O)N[C@@H](CCCNC(=N)N)C(=O)NCC(=O)NCC(=O)N[C@@H](CCCCN)C(=O)NCC(=O)N[C@@H](CCCNC(=N)N)C(=O)N[C@H]1CSSC[C@@H](C(=O)N[C@@H](Cc2ccccc2)C(=O)N2CCC[C@H]2C(=O)O)NC(=O)[C@H]([C@@H](C)CC)NC(=O)[C@@H]2CCCN2C(=O)[C@@H]2CCCN2C(=O)[C@H]([C@@H](C)CC)NC(=O)[C@H](CO)NC(=O)[C@H](CCCCN)NC(=O)[C@H]([C@@H](C)O)NC1=O)C(C)C [N-GLP-1-BT1] | 100.0 ± 0.0 | 84 ± 0.1 | 80.1 ± 0.9 | 76 ± 1.6 | 74.1 ± 0.5 | 72.1 ± 2 | 100.0 ± 0.0 | 82.3 ± 8.3 | 80.3 ± 2 | 74.4 ± 9.1 | 68.7 ± 8.4 | remaining at 0.25 h, 60 μM [3]: 84.5 ± 4.9%; remaining at 0.5 h, 60 μM [3]: 83.7 ± 3%; remaining at 1 h, 60 μM [3]: 83.5 ± 1.4%; remaining at 0.15 h, 60 μM [4]: 51.9 ± 1%
105 ± 3 | 104 ± 2.8 | 102 ± 3 | 104 ± 6.4 | 103 ± 3.5 | 75.5 ± 5.3 | 56.3 ± 2.1 | 47 ± 1.6 | 38.1 ± 2.2 | CC[C@H](C)[C@H](NC(=O)[C@H](Cc1ccccc1)NC(=O)[C@H](CCC(=O)O)NC(=O)[C@H](CCCCN)NC(=O)[C@H](C)NC(=O)[C@H](C)NC(=O)[C@H](CCC(N)=O)NC(=O)CNC(=O)[C@H](CCC(=O)O)NC(=O)[C@H](CC(C)C)NC(=O)[C@H](Cc1ccc(O)cc1)NC(=O)[C@H](CO)NC(=O)[C@H](CO)NC(=O)[C@@H](NC(=O)[C@H](CC(=O)O)NC(=O)[C@H](CO)NC(=O)[C@@H](NC(=O)[C@H](Cc1ccccc1)NC(=O)[C@@H](NC(=O)CNC(=O)[C@H](CCC(=O)O)NC(=O)[C@H](C)NC(=O)[C@H](Cc1c[nH]cn1)NC(=O)CNC(=O)CNC(=O)[C@H](CCCNC(=N)N)NC(=O)[C@H](CO)NC(=O)[C@H](Cc1ccccc1)NC(=O)[C@H](CCCNC(=N)N)NC(=O)[C@H](CCC(N)=O)NC(=O)CN)[C@@H](C)O)[C@@H](C)O)C(C)C)C(=O)N[C@@H](C)C(=O)N[C@@H](Cc1c[nH]c2ccccc12)C(=O)N[C@@H](CC(C)C)C(=O)N[C@H](C(=O)N[C@@H](CCCCN)C(=O)NCC(=O)N[C@@H](CCCNC(=N)N)C(=O)NCC(=O)NCC(=O)N[C@@H](CCCCN)C(=O)NCC(=O)N[C@H]1CSSC[C@@H](C(=O)N[C@@H](Cc2ccccc2)C(=O)O)NC(=O)[C@H]([C@@H](C)CC)NC(=O)[C@@H]2CCCN2C(=O)[C@@H]2CCCN2C(=O)[C@H]([C@@H](C)CC)NC(=O)[C@H](CO)NC(=O)[C@H](CCCCN)NC(=O)[C@H]([C@@H](C)O)NC(=O)[C@H](C)NC(=O)[C@H](CCCNC(=N)N)NC(=O)CNC1=O)C(C)C [N-GLP-1-BT9] | 100.0 ± 0.0 | 90 ± 3 | 89.5 ± 1.8 | 89.6 ± 3.6 | 89.2 ± 1 | 89.3 ± 7.5 | 100.0 ± 0.0 | 85.9 ± 2.8 | 74.9 ± 1.4 | 66.8 ± 2.1 | 52.7 ± 3.9 | remaining at 0.25 h, 60 μM [3]: 102 ± 4.9%; remaining at 0.5 h, 60 μM [3]: 96.4 ± 9.9%; remaining at 1 h, 60 μM [3]: 86.3 ± 6.4%; remaining at 0.15 h, 60 μM [4]: 24.2 ± 3%
